Columns and labels:
[1] = tested on: DAT; assay: HRRT PET imaging in an awake rhesus monkey; assay type: in vivo; details: HRRT PET images
[2] = target: DAT (Macaca fascicularis, UniProt Q9GJT6); assay: MicroPET imaging in anesthetized cynomolgus monkeys; assay type: in vivo; details: anesthetized cynomolgus monkey
DAT (Macaca fascicularis, UniProt Q9GJT6), sequence (Q9GJT6 whole entry): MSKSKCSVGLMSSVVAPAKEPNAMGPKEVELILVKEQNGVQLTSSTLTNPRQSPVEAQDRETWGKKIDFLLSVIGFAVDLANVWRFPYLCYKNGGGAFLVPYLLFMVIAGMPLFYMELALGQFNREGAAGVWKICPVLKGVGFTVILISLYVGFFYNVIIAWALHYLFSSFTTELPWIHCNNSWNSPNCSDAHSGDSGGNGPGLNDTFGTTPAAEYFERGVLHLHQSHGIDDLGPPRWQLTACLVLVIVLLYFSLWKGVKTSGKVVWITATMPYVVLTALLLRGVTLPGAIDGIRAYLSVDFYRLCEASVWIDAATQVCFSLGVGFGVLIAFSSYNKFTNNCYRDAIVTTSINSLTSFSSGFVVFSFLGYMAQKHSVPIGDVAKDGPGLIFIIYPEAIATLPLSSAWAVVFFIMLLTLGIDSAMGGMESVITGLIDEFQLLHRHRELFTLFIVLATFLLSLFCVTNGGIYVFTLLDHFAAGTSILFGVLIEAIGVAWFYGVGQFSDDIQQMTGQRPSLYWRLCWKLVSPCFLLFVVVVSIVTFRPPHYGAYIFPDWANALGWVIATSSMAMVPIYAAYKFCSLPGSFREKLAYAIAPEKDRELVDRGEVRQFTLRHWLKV

COC(=O)C1C(c2ccc(F)cc2)CC2CCC1N2C/C=C/C[18F] (stereo not drawn) [[^18F]9, A-((E)-4-[^18F]fluorobut-2-en-1-yl)-2β-carbomethoxy-3β-(4′-fluorophenyl)nortropane]
Defluorination (visualization of the skull) [1]: some degree of defluorination
Displacement of radiotracer in chase study ([2]; 19 (RTI-113•HCl) 0.3 mg/kg at 90 min post-injection): complete displacement
Time to peak uptake in the putamen ([2]; microPET baseline): ≤ 20 min
Time to peak uptake in the substantia nigra ([2]; microPET baseline): ≤ 10 min
Defluorination (radioactivity in the skull) ([2]; microPET images): low degree of defluorination

— publication PMC3756492 (Journal of medicinal chemistry, 2010)
